# Reference: patent US10910084B2, “Method for modelling, optimizing, parameterizing, testing and validating a dynamic network with network perturbations” (Albert-Ludwigs-Universität Freiburg, priority 2011, dated 2021)
# Experiments:
# Format in all cases: cell-based
# [1] = system: mTOR-pS2481 (mTORC2 readout) in HeLa cells; assay: mTOR-pS2481 immunoblot of whole cell lysates, HeLa cells starved and induced with aa/insulin
# Protocol: (§1) Experiments were performed in particular in HeLa α Kyoto cells and C2C12 myoblasts. For inducible knock down of Raptor or TSC2, cells were transduced with lentivirus encoding the tetracycline-sensitive tTR-KRAB repressor and a DsRed reporter. Cells were subsequently transfected with lentivirus encoding the specific shRNA, and a GFP reporter, (pLVTH vector), both preferably under the control of tTR-KRAB. For lentivirus-mediated knock down of Rictor a pLKO.1-based short hairpin construct specific for Rictor (Addgene plasmid 1853), as well as a scrambled control sequence (Addgene plasmid 1864) can in particular be supplied from Addgene. HeLa cells were transfected with viral supernatant twice as described previously and harvested 60 hours after transfection.
# For calibration data sets, in particular HeLa cells can be starved for serum and amino acids by exchanging standard growth medium for Hank's Buffered Salt Solution (HBSS) (PAN Biotech GmbH, Aidenbach, Germany) over night to inhibit mTOR pathway activity. After 16 hours of starvation, mTOR signaling was restimulated with DMEM containing amino acids and supplemented with 100 nM insulin (Sigma Aldrich, St. Louis, Mo., USA).
# Gradual knockdowns of Raptor or TSC2 can preferably be established by induction with 5 μg/ml doxycycline (Calbiochem, Merck, Darmstadt, Germany) for 0, 1, 2, or 3 days. Cells can be starved for 16 hours in HBSS and mTOR signaling was induced with DMEM (PAA, Pasching, Austria) supplemented with 100 nM insulin. […] Wortmannin or LY294002 can in particular be added 30 min prior to and during the stimulation with DMEM supplemented 100 nM insulin. Cells can for example be washed once with PBS and lysed with TNE lysis buffer [50 mM Tris HCL pH8.0, 150 mM NaCl, 1% v/v TritonX-100 (Calbiochem, Merck, Darmstadt, Germany), Complete (Roche, Mannheim, Germany), Phosphatase Inhibitor Cocktail 2, Phosphatase Inhibitor Cocktail 3 (both Sigma Aldrich, St. Louis, Mo., USA)]. Protein concentrations can preferably be measured (Protein Assay Dye Reagent Concentrate, Bio-Rad, Hercules, Calif., USA) according to manufacturer's protocol. Concentrations can for example be adjusted with lysis buffer. […] Whole cell lysates can for example be analyzed using SDS-PAGE gels. […]
# (§2) HRP can for example be detected with the ECL Western Blotting Substrate or the SuperSignal West Femto reagent [Pierce Biotechnology (Thermo Scientific, Rockford, Ill. USA)], and the emitted light can in particular be detected and quantified with a chemiluminescence imaging analyzer (LAS4000mini; Fujifilm, Tokyo, Japan). Obtained images can preferably be analyzed with Multi-Gauge version 3.0 software (Fujifilm, Tokyo, Japan). […]
# [2] = system: mTOR-pS2481 in C2C12 cells; assay: mTOR-pS2481 immunoblot in C2C12 myoblasts; conditions: continuous presence of aa/insulin
# Protocol: as §1, with “HeLa cells were transfected with viral supernatant twice as described previously and harvested 60 hours after transfection.” left out
# (§3) Gradual knockdowns of Raptor or TSC2 can preferably be established by induction with 5 μg/ml doxycycline (Calbiochem, Merck, Darmstadt, Germany) for 0, 1, 2, or 3 days. […] Protein concentrations can preferably be measured (Protein Assay Dye Reagent Concentrate, Bio-Rad, Hercules, Calif., USA) according to manufacturer's protocol. […] Whole cell lysates can for example be analyzed using SDS-PAGE gels. […]
# as §2, with “Japan).” for “Japan). Obtained images can preferably be analyzed with Multi-Gauge version 3.0 software (Fujifilm, Tokyo, Japan).”
# [3] = system: p70-S6K-pT389 (mTORC1 readout) in HeLa cells; assay: p70-S6K-pT389 immunoblot of whole cell lysates, HeLa cells; conditions: quantitation of 3 experiments; 200 nM PP242; Rapamycin; * P<0.05
# Protocol: as §1, with “HeLa cells were transfected with viral supernatant twice as described previously and harvested 60 hours after transfection.” left out
# as §3
# as §2, with “Japan).” for “Japan). Obtained images can preferably be analyzed with Multi-Gauge version 3.0 software (Fujifilm, Tokyo, Japan).”
# [4] = system: mTOR-pS2481 associated with the immunoprecipitated mTORC2; assay: mTOR-pS2481 in mTORC2 immunoprecipitated with Sin1 antibody, HeLa cells; conditions: Sin1 immunoprecipitation
# Protocol: Immunoprecipitations can in particular be performed as described elsewhere. […] Immunoprecipitations were performed with 5 μg/ml antibody [antibody recognizing Sin1, Raptor, or rabbit IgG (all Bethyl)] and with magnetic Dynabeads Protein G (Invitrogen). Gradual knockdowns of Raptor or TSC2 can preferably be established by induction with 5 μg/ml doxycycline (Calbiochem, Merck, Darmstadt, Germany) for 0, 1, 2, or 3 days. Cells can be starved for 16 hours in HBSS and mTOR signaling was induced with DMEM (PAA, Pasching, Austria) supplemented with 100 nM insulin. […] Wortmannin or LY294002 can in particular be added 30 min prior to and during the stimulation with DMEM supplemented 100 nM insulin. […] Protein concentrations can preferably be measured (Protein Assay Dye Reagent Concentrate, Bio-Rad, Hercules, Calif., USA) according to manufacturer's protocol. […] Whole cell lysates can for example be analyzed using SDS-PAGE gels. […] HRP can for example be detected with the ECL Western Blotting Substrate or the SuperSignal West Femto reagent [Pierce Biotechnology (Thermo Scientific, Rockford, Ill. USA)], and the emitted light can in particular be detected and quantified with a chemiluminescence imaging analyzer (LAS4000mini; Fujifilm, Tokyo, Japan). Obtained images can preferably be analyzed with Multi-Gauge version 3.0 software (Fujifilm, Tokyo, Japan). […]
# [5] = system: Akt-pS473 in HeLa cells; assay: Akt-pS473 immunoblot of whole cell lysates, HeLa cells; conditions: HeLa cells starved, induced by aa/insulin for 30 and 50 min
# Protocol: as §1, with “HeLa cells were transfected with viral supernatant twice as described previously and harvested 60 hours after transfection.” left out
# as §3
# as §2, with “Japan).” for “Japan). Obtained images can preferably be analyzed with Multi-Gauge version 3.0 software (Fujifilm, Tokyo, Japan).”
structure (smiles),measurement,setting,value
O=c1cc(N2CCOCC2)oc2c(-c3ccccc3)cccc12 [LY294002],LY294002 concentrations at which mTORpS2481 was reduced,[1]; HeLa cells (FIG. 10C),≥ 1 µM
CC(C)n1nc(-c2cc3cc(O)ccc3[nH]2)c2c(N)ncnc21 [PP242],amount of mTOR-pS2481,[2],decreased
same,mTOR-pS2481 abundance,"[1]; HeLa cells, short-term treatment",reduced the abundance of mTORpS2481 in a dose-dependent manner
same,"mTOR-pS2481 compared to DMSO-treated control, significance (FIG. 1E)","[1]; quantitation of 3 experiments, 200 nM PP242, 100 nM Rapamycin, * P<0.05",significant
same,"p70-S6K-pT389 compared to DMSO-treated control, significance (FIG. 1D)",[3],significant
same,mTOR-pS2481 associated with the immunoprecipitated mTORC2,[4],significantly reduced
COC[C@H]1OC(=O)c2coc3c2[C@@]1(C)C1=C(C3=O)[C@@H]2CCC(=O)[C@@]2(C)C[C@H]1OC(C)=O [Wortmannin],Wortmannin concentrations at which mTORpS2481 was inhibited,"[1]; HeLa cells starved, induced by aa/insulin for 30 and 50 min",≥ 20 nM
same,Wortmannin concentration at which Akt-pS473 was already inhibited,[5],5 nM
same,Wortmannin concentrations at which Akt-pS473 was strongly inhibited,[5],≥ 10 nM
